Experimental data from PubChem BioAssay (NCI).
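Five concentrations, 48 hours, 96-well plates. TGI is the concentration that stops growth completely.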

How the values were obtained:
Assay in all cases: inhibition of tumour cell growth, NCI panel, 48 h
[1] = tested on: SF-268 CNS
[2] = tested on: HOP-62 NSCLC
[3] = tested on: K-562 leukemia
[4] = tested on: A549 NSCLC
[5] = tested on: HL-60(TB) leukemia
[6] = tested on: SK-OV-3 ovarian
[7] = tested on: UACC-257 melanoma
[8] = tested on: UO-31 renal
[9] = tested on: SN12C renal
[10] = tested on: MDA-MB-435

Row | Structure (SMILES) | TGI [1] [µM] | TGI [2] [µM] | TGI [3] [µM] | TGI [4] [µM] | TGI [5] [µM] | TGI [6] [µM] | TGI [7] [µM] | TGI [8] [µM] | TGI [9] [µM] | TGI [10] [µM]
1 | CC1(C)COC(c2c(-c3ccccc3)noc2CS(=O)c2ccccc2)=N1 (stereo not drawn) | > 100 | > 100 | > 100 | > 100 | 84.6 | > 100 | > 100 | > 100 | > 100 | –
2 | CCN(CC)CCCCC1CCN(CC(=O)N2c3ccccc3NC(=O)CC2C)CC1 (stereo not drawn) | > 100 | > 100 | > 100 | > 100 | > 100 | > 100 | > 100 | > 100 | > 100 | –
3 | O=C1C=C(N2CCN(c3ccccn3)CC2)C(=O)c2c(O)ccc(O)c21 | > 56.2 | 47.7 | 36.2 | 40.7 | 20.3 | 51.3 | 23.4 | > 46.4 | 45.2 | 1.75
4 | C=CCOC(=O)CCCCCCCCCCCCCCCOC(=O)C1=C(CCC[C@@H](C)O[Si](C)(C)C(C)(C)C)NC(=O)N2[C@H](CC3(CC/C=C\[C@H](CC)O[Si](C(C)C)(C(C)C)C(C)C)OCCO3)CC[C@H]12 | > 100 | > 100 | – | > 100 | – | > 100 | > 100 | > 100 | > 100 | > 100
5 | O=CNNC(=O)Nc1ccc(Cl)cc1 | > 100 | > 100 | > 100 | > 100 | > 100 | > 100 | > 100 | > 100 | > 100 | > 100
6 | O=C1CSC2(CC(/C=C/c3ccccc3Br)=NN2c2cccc(S(=O)(=O)O)c2)N1c1nc2ccccc2s1 (stereo not drawn) | > 100 | – | > 100 | > 100 | > 100 | – | > 100 | > 100 | > 100 | > 100
7 | O=C(OCc1ccccc1C1CSCSC1)c1cc(C(=O)OCc2ccccc2C2CSCSC2)c(C(=O)OCc2ccccc2C2CSCSC2)cc1C(=O)OCc1ccccc1C1CSCSC1 | > 100 | > 100 | > 100 | > 100 | > 100 | > 100 | > 100 | > 100 | > 100 | –
8 | O=C(c1ccco1)C1CC(c2ccc3ccccc3c2O)=NN1c1ccc([N+](=O)[O-])cc1[N+](=O)[O-] (stereo not drawn) | > 100 | > 100 | – | > 100 | – | 96.9 | > 100 | > 100 | > 100 | > 100
9 | OC12CCCCCC1(N1CCOCC1)c1ccccc12 (stereo not drawn) | > 100 | > 100 | > 100 | > 100 | > 100 | > 100 | > 100 | > 100 | > 100 | –
10 | Cc1cc(=O)[nH]c(NNC(C#N)c2ccc([N+](=O)[O-])cc2)n1 (stereo not drawn) | > 100 | > 100 | > 100 | > 100 | > 100 | > 100 | > 100 | > 100 | > 100 | –
11 | [N-]=[N+]=C(C(=O)C(=[N+]=[N-])C(=O)c1ccccc1)C(=O)c1ccccc1 | > 100 | > 100 | > 100 | > 100 | > 100 | – | > 100 | > 100 | > 100 | > 100
